Columns and labels:
[1] = test system: normal C57BL/6J splenic B-cells (AID+/+) versus splenic B-cells from AID−/− mice; assay: screening of DIDS derivatives, MultiTox-Fluor Multiplex Cytotoxicity Assay; assay type: cell-based, mouse; conditions: 10, 50 or 150 μM, 4 days of stimulation with anti-CD40 plus IL-4
Method: To identify bioactive derivatives of DIDS, a library of 10^5 chemical variants of DIDS was generated by replacing the sulfonate or isothiocyanate group with other chemical entities, or by altering the double bond joining the two rings in the stilbene backbone. All compounds were resuspended in dimethyl sulfoxide (DMSO) at a stock concentration of […], and used by serial dilution to generate working concentrations of 10, 50, or 150 μM. These were individually pipetted into 96-well microtiter culture dishes in duplicate, generating two plates of 10 μM, two plates of 50 μM, and two plates of 150 μM compounds. In each set, one plate was seeded with 100,000 normal C57BL/6J splenic B-cells (AID+/+) isolated by magnetic bead based sorting to enrich for B220+ IgM+ B-cells; and one plate was seeded with 100,000 splenic B-cells from AID−/− mice identically isolated. Each culture was stimulated on day 0 by addition of 1 μg/ml anti-CD40 plus 25 ng/ml IL-4 to induce proliferation and class-switch recombination. After two days, each culture was re-stimulated by an additional 1 μg/ml anti-CD40 plus 25 ng/ml IL-4. After two additional days in culture, for a total of 4 days of stimulation, viable cell counts were determined in each well of each plate using the MultiTox-Fluor Multiplex Cytotoxicity Assay (Promega, Inc.). For viability measurements, 100 microliters of the 2× MultiTox-Fluor Multiplex Cytotoxicity Reagent was added to each well and mixed before incubating at 37° C. for 30 min. Plates were then transferred to a fluorescence-capable multiplate reader and analyzed using 400 nm excitation and detection of 505 nm emission to measure the fraction of remaining live cells. As controls, wells containing either vehicle alone (DMSO) or 150 μM DIDS were included on each plate. Viability scores for each compound were determined as the fraction of live cells in the normal B-cell plate divided by the fraction of live cells in the corresponding AID knockout plate. Compounds that produce normal/AID knockout ratios at or below the level of the DIDS ratio were considered candidate compounds for further validation and testing. […] The initial screen identified 10 derivatives, BB5-6, BB1-6, BB1-7, BB2-6, BB2-5, BB5-39, BB4B-2, BB5-4, BB5-47, and BB8-1 (FIG. 10).

[2] = test system: primary AID-knockout mouse splenocytes; assay: viability of activated AID-null splenocytes treated with NS-123 (Trypan blue); assay type: cell-based
Method: Primary mouse B-cells were isolated from spleens of adult AID−/− mice as described in Example 1. Cultures were established at a concentration of 1×10^6 cells per ml in RPMI-1640 medium with 10% FBS. Cultures were activated with anti-CD40 antibody plus IL-4, and treated with 4′-Bromo-3′ nitropropiophenone (NS-123) (purchased from Calbiochem; CAS No. 101860-83-7) at concentrations of 0.5, 5, 50, or 500 μM. Cells were re-activated by anti-CD40 plus IL-4 after two days in culture. Cell counts were determined after 1, 2, 3, and 4 days in culture by Trypan blue staining. At the concentration of 50 μM and 500 μM of NS-123 AID-null splenocytes were not viable. At the concentration of 5 μM of NS-123 the viability of the splenocytes is reduced when compared to untreated splenocytes (FIG. 12).
Primary AID-knockout mouse splenocytes were seeded in cultures at day 0 at a concentration of 1×10^6 cells/ml in RPMI-1640 medium supplemented with anti-CD40 plus IL-4 to activate B-cells. Individual cultures were supplemented with 0, 5, 10, 20, 30, 40, or 50 μM NS-123 and viable cells were counted after Trypan blue staining on days 1, 2, 3, and 4 (FIG. 13).

[3] = test system: U251, HT-29 and A549 tumor cells; conditions: cited from earlier work

SMILES	viability score: fraction of live cells AID+/+ divided by fraction of live cells AID−/− (hit: ratio less than 1) [1]	other results
CN(C)S(=O)(=O)Nc1ccc(/C=C/c2ccc(NS(=O)(=O)N(C)C)cc2)cc1 [BB1-7, (E)-N,N′-(ethene-1,2-diylbis(4,1-phenylene))bis(dimethylamino-sulfonamide)]	identified	–
CCNC(=O)Nc1ccc(/C=C/c2ccc(NC(=O)COC)cc2S(=O)(=O)[O-])c(S(=O)(=O)[O-])c1.[Na+].[Na+] [BB5-47, sodium (E)-5-(3-ethylureido)-2-(4-(2-methoxyacetamido)-2-sulfonatostyryl)benzenesulfonate]	identified	–
CN(C)c1ccc(/C=C/c2ccc(NS(=O)(=O)C3CC3)cc2)cc1 [BB2-5, (E)-N-(4-(4-(dimethylamino)styryl)phenyl)cyclopropanesulfonamide]	identified	–
CC(C)NC(=O)Nc1ccc(CCc2ccc(NC(=O)NC(C)C)cc2S(=O)(=O)[O-])c(S(=O)(=O)[O-])c1.[Na+].[Na+] [BB4B-2, sodium 6,6′-(ethane-1,2-diyl)bis(3-(3-isopropylureido)benzenesulfonate)]	identified	–
CC(C)S(=O)(=O)Nc1ccc(/C=C/c2ccc(N(C)C)cc2)cc1 [BB2-6, (E)-N-(4-(4-(dimethylamino)styryl)phenyl)propane-2-sulfonamide]	identified	–
CCC(=O)c1ccc(Br)c([N+](=O)[O-])c1 [NS-123, 1-(4-bromo-3-nitrophenyl)propan-1-one]	–	viability of AID-null splenocytes ([2]; 5 μM NS-123, compared to untreated splenocytes): reduced; viability of AID-null splenocytes ([2]; 50 μM NS-123, activated with anti-CD40 plus IL-4): not viable; viability of AID-null splenocytes ([2]; 500 μM NS-123, activated with anti-CD40 plus IL-4): not viable; LD50 ([2]; AID-null splenocytes, activated with anti-CD40 plus IL-4): 14 µM; concentration enhancing tumor growth-inhibitory effects of ionizing radiation ([3]; U251, HT-29 and A549 tumor cells): ~5 µM; effect on normal cells and organisms ([3]; normal human glial cells, Zebrafish embryos and nude mice): no apparent effect
CC(C)S(=O)(=O)Nc1ccc(/C=C/c2ccc(NC(=S)NC3CC3)cc2S(=O)(=O)[O-])c(S(=O)(=O)[O-])c1.[Na+].[Na+] [BB5-39, sodium (E)-5-(3-cyclopropylthioureido)-2-(4-(1-methylethylsulfonamido)-2-sulfonatostyryl)benzenesulfonate]	identified	–
CC(=O)Nc1ccc(/C=C/c2ccc(NS(=O)(=O)N(C)C)cc2S(=O)(=O)[O-])c(S(=O)(=O)[O-])c1.[Na+].[Na+] [BB5-6, sodium (E)-5-acetamido-2-(4-((N,N-dimethylsulfamoyl)amino)-2-sulfonatostyryl)benzenesulfonate]	identified	–
CC(C)S(=O)(=O)Nc1ccc(/C=C/c2ccc(NS(=O)(=O)C(C)C)cc2)cc1 [BB1-6, (E)-N,N′-(ethene-1,2-diylbis(4,1-phenylene))bis(propane-2-sulfonamide)]	identified	–
CC(=O)Nc1ccc(/C=C/c2ccc(NS(=O)(=O)C3CC3)cc2S(=O)(=O)[O-])c(S(=O)(=O)[O-])c1.[Na+].[Na+] [BB5-4, sodium (E)-5-acetamido-2-(4-(cyclopropanesulfonamido)-2-sulfonatostyryl)benzenesulfonate]	identified	–
CNC(=O)c1ccc(/C=C/c2ccc(C(=O)NC)cc2)cc1 [BB8-1, (E)-4,4′-(ethene-1,2-diyl)bis(N-methylbenzamide)]	identified	–

— patent publication US10207988B2, “Methods and compositions for treatment of cancer and autoimmune disease” (THE JACKSON LABORATORY, priority 2011, dated 2019)
